Data reported in PubChem BioAssay (NCI).
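Five concentrations, 48 hours, 96-well plates. TGI is the concentration that stops growth completely.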

How the values were obtained:
Experiment in all cases: growth of human tumour cells (NCI), 48 h
786-0 renal = tested on: 786-0 renal
A549 NSCLC = tested on: A549 NSCLC
ACHN renal = tested on: ACHN renal
BT-549 breast = tested on: BT-549 breast
CAKI-1 renal = tested on: CAKI-1 renal
CCRF-CEM leukemia = tested on: CCRF-CEM leukemia
COLO 205 colon = tested on: COLO 205 colon
DU-145 prostate = tested on: DU-145 prostate
EKVX NSCLC = tested on: EKVX NSCLC
HCC-2998 colon = tested on: HCC-2998 colon
HCT-116 colon = tested on: HCT-116 colon
HCT-15 colon = tested on: HCT-15 colon
HL-60(TB) leukemia = tested on: HL-60(TB) leukemia
HOP-62 NSCLC = tested on: HOP-62 NSCLC
HS 578T breast = tested on: HS 578T breast
HT29 colon = tested on: HT29 colon
K-562 leukemia = tested on: K-562 leukemia
KM12 colon = tested on: KM12 colon
M14 melanoma = tested on: M14 melanoma
MCF7 breast = tested on: MCF7 breast
MDA-MB-231 breast = tested on: MDA-MB-231 breast
MDA-MB-435 = tested on: MDA-MB-435
MDA-N = tested on: MDA-N
MOLT-4 leukemia = tested on: MOLT-4 leukemia
NCI-H23 lung = tested on: NCI-H23 lung
NCI-H460 lung = tested on: NCI-H460 lung
NCI-H522 lung = tested on: NCI-H522 lung
NCI/ADR-RES ovarian = tested on: NCI/ADR-RES ovarian
OVCAR-3 ovarian = tested on: OVCAR-3 ovarian
OVCAR-4 ovarian = tested on: OVCAR-4 ovarian
OVCAR-8 ovarian = tested on: OVCAR-8 ovarian
PC-3 prostate = tested on: PC-3 prostate
RPMI-8226 leukemia = tested on: RPMI-8226 leukemia
RXF 393 renal = tested on: RXF 393 renal
SF-268 CNS = tested on: SF-268 CNS
SF-295 CNS = tested on: SF-295 CNS
SF-539 CNS = tested on: SF-539 CNS
SK-MEL-28 melanoma = tested on: SK-MEL-28 melanoma
SK-MEL-5 melanoma = tested on: SK-MEL-5 melanoma
SK-OV-3 ovarian = tested on: SK-OV-3 ovarian
SN12C renal = tested on: SN12C renal
SNB-19 CNS = tested on: SNB-19 CNS
SNB-75 CNS = tested on: SNB-75 CNS
SR leukemia = tested on: SR leukemia
SW-620 colon = tested on: SW-620 colon
T-47D breast = tested on: T-47D breast
TK-10 renal = tested on: TK-10 renal
U251 CNS = tested on: U251 CNS
UACC-257 melanoma = tested on: UACC-257 melanoma
UACC-62 melanoma = tested on: UACC-62 melanoma
UO-31 renal = tested on: UO-31 renal
A498 renal = tested on: A498 renal
IGROV1 ovarian = tested on: IGROV1 ovarian
LOX IMVI melanoma = tested on: LOX IMVI melanoma
MALME-3M melanoma = tested on: MALME-3M melanoma
NCI-H226 lung = tested on: NCI-H226 lung
OVCAR-5 ovarian = tested on: OVCAR-5 ovarian
SK-MEL-2 melanoma = tested on: SK-MEL-2 melanoma

COC(=O)c1ccc(/C=C2\Cc3ccccc3C2=O)cc1
TGI (786-0 renal): > 100 µM
TGI (A549 NSCLC): > 100 µM
TGI (ACHN renal): > 100 µM
TGI (BT-549 breast): > 100 µM
TGI (CAKI-1 renal): > 100 µM
TGI (CCRF-CEM leukemia): > 100 µM
TGI (COLO 205 colon): > 100 µM
TGI (DU-145 prostate): > 100 µM
TGI (EKVX NSCLC): > 100 µM
TGI (HCC-2998 colon): > 100 µM
TGI (HCT-116 colon): > 100 µM
TGI (HCT-15 colon): > 100 µM
TGI (HL-60(TB) leukemia): > 100 µM
TGI (HOP-62 NSCLC): > 100 µM
TGI (HS 578T breast): > 100 µM
TGI (HT29 colon): > 100 µM
TGI (K-562 leukemia): > 100 µM
TGI (KM12 colon): > 100 µM
TGI (M14 melanoma): > 100 µM
TGI (MCF7 breast): > 100 µM
TGI (MDA-MB-231 breast): > 100 µM
TGI (MDA-MB-435): > 100 µM
TGI (MDA-N): > 100 µM
TGI (MOLT-4 leukemia): > 100 µM
TGI (NCI-H23 lung): > 100 µM
TGI (NCI-H460 lung): > 100 µM
TGI (NCI-H522 lung): > 100 µM
TGI (NCI/ADR-RES ovarian): > 100 µM
TGI (OVCAR-3 ovarian): > 100 µM
TGI (OVCAR-4 ovarian): > 100 µM
TGI (OVCAR-8 ovarian): > 100 µM
TGI (PC-3 prostate): > 100 µM
TGI (RPMI-8226 leukemia): > 100 µM
TGI (RXF 393 renal): > 100 µM
TGI (SF-268 CNS): > 100 µM
TGI (SF-295 CNS): > 100 µM
TGI (SF-539 CNS): > 100 µM
TGI (SK-MEL-28 melanoma): > 100 µM
TGI (SK-MEL-5 melanoma): > 100 µM
TGI (SK-OV-3 ovarian): > 100 µM
TGI (SN12C renal): > 100 µM
TGI (SNB-19 CNS): > 100 µM
TGI (SNB-75 CNS): > 100 µM
TGI (SR leukemia): > 100 µM
TGI (SW-620 colon): > 100 µM
TGI (T-47D breast): > 100 µM
TGI (TK-10 renal): > 100 µM
TGI (U251 CNS): > 100 µM
TGI (UACC-257 melanoma): > 100 µM
TGI (UACC-62 melanoma): > 100 µM
TGI (UO-31 renal): > 100 µM

COc1cccc(CCn2c(N)c(C(=O)O)c3ccc([N+](=O)[O-])cc3c2=O)c1
TGI (786-0 renal): > 100 µM
TGI (A498 renal): > 100 µM
TGI (A549 NSCLC): > 100 µM
TGI (ACHN renal): > 100 µM
TGI (BT-549 breast): 87.4 µM
TGI (CAKI-1 renal): > 100 µM
TGI (CCRF-CEM leukemia): > 100 µM
TGI (COLO 205 colon): 45.9 µM
TGI (DU-145 prostate): > 100 µM
TGI (EKVX NSCLC): > 100 µM
TGI (HCC-2998 colon): > 100 µM
TGI (HCT-116 colon): > 100 µM
TGI (HCT-15 colon): > 100 µM
TGI (HL-60(TB) leukemia): > 100 µM
TGI (HOP-62 NSCLC): > 100 µM
TGI (HS 578T breast): > 100 µM
TGI (HT29 colon): > 100 µM
TGI (IGROV1 ovarian): > 100 µM
TGI (K-562 leukemia): > 100 µM
TGI (LOX IMVI melanoma): > 100 µM
TGI (M14 melanoma): > 100 µM
TGI (MALME-3M melanoma): > 100 µM
TGI (MCF7 breast): 57.7 µM
TGI (MDA-MB-231 breast): 72.8 µM
TGI (MDA-MB-435): > 100 µM
TGI (MDA-N): > 100 µM
TGI (MOLT-4 leukemia): > 100 µM
TGI (NCI-H226 lung): > 100 µM
TGI (NCI-H23 lung): 64.7 µM
TGI (NCI-H460 lung): > 100 µM
TGI (NCI-H522 lung): 75.8 µM
TGI (NCI/ADR-RES ovarian): 89.7 µM
TGI (OVCAR-3 ovarian): > 100 µM
TGI (OVCAR-4 ovarian): > 100 µM
TGI (OVCAR-5 ovarian): > 100 µM
TGI (OVCAR-8 ovarian): > 100 µM
TGI (PC-3 prostate): > 100 µM
TGI (RPMI-8226 leukemia): > 100 µM
TGI (RXF 393 renal): > 100 µM
TGI (SF-268 CNS): > 100 µM
TGI (SF-295 CNS): > 100 µM
TGI (SK-MEL-2 melanoma): 68.3 µM
TGI (SK-MEL-28 melanoma): > 100 µM
TGI (SK-MEL-5 melanoma): > 100 µM
TGI (SK-OV-3 ovarian): > 100 µM
TGI (SN12C renal): > 100 µM
TGI (SNB-19 CNS): > 100 µM
TGI (SNB-75 CNS): 90.3 µM
TGI (SR leukemia): > 100 µM
TGI (SW-620 colon): > 100 µM
TGI (T-47D breast): > 100 µM
TGI (U251 CNS): > 100 µM
TGI (UACC-62 melanoma): > 100 µM
TGI (UO-31 renal): > 100 µM
